Experimental data reported in article PMC6751662, “Pharmacological and functional similarities of the human neuropeptide Y system in C. elegans challenges phylogenetic views on the FLP/NPR system” (Cell Communication and Signaling : CCS, 2019).

How the values were obtained:
Format in all cases: cell-based
[1] = molecular target: T1, Y1R (Homo sapiens, UniProt P25929); experiment: IP accumulation assay, chimeric GαΔ6qi4myr, Y1R; settings: chimeric GαΔ6qi4myr co-transfected, transiently transfected HEK293 cells, mean of at least three independent experiments
T1 construct: expressed in transfected cells; host or cells: HEK293, transient
T1 sequence (P25929 1-384): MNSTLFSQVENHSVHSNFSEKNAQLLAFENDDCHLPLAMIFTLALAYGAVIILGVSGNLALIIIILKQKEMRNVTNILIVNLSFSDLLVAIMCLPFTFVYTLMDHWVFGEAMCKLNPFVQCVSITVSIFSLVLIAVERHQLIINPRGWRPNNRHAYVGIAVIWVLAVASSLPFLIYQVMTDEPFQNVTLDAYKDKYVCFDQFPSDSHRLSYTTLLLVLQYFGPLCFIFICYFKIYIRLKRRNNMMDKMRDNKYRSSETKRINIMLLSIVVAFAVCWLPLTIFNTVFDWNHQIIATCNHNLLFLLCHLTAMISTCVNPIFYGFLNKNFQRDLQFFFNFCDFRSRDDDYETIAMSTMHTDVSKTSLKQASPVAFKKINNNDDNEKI
Procedure: (§1) For measuring IP accumulation, HEK293 cells grown to 70–80% confluency in 6-well plates were transiently co-transfected using Metafectene Pro (2.5 μl/μg DNA; Biontex) with plasmids containing receptor and/or mock (empty pcDNA3.1) (for endogenous Gq-coupling) using 4 μg total DNA in a ratio of 3:1 following the manufacturer’s instructions. For testing Gα16- and GαΔ6qi4myr-coupling, plasmids encoding the corresponding Gα protein were co-transfected instead of mock. Gα16 is naturally promiscuous and stimulates the phospholipase C (PLC) pathway leading to IP production, while the exchange of the C-terminal four amino acids of Gαq for the corresponding residues of Gαi1 in the chimeric GαΔ6qi4myr confers the ability to couple to Gi/o protein-preferring receptors but still stimulate PLC, thus specifically redirecting downstream cellular signaling. 16 h post transfection, the cells were seeded into white 384-well plates at a density of 20,000 cells/well. Media was removed 24 h later and the cells were incubated with the indicated concentration of peptides for 1 h in HBSS + 20 mM LiCl. IP accumulation was measured with the HTRF-based IP-One Gq kit (Cisbio) on a microplate reader (Tecan Spark).
(§2) For in vitro activation, data is presented as mean ± SEM of at least three independent experiments conducted in technical triplicate. […] For the C. elegans NPRs, we considered the strongest response elicited by any of the peptides downstream of a particular receptor as the receptor’s maximal signal. This may or may not be the biological maximum that can be reached by the ‘true’ endogenous agonist. For the human receptors, the response to the established endogenous agonist reflected the maximal signal.

[2] = molecular target: T2, Y2R (Homo sapiens, UniProt P49146); experiment: IP accumulation assay, chimeric GαΔ6qi4myr, Y2R; settings: chimeric GαΔ6qi4myr co-transfected, transiently transfected HEK293 cells, mean of at least three independent experiments
T2 construct: expressed in transfected cells; host or cells: HEK293, transient
T2 sequence (P49146 1-381): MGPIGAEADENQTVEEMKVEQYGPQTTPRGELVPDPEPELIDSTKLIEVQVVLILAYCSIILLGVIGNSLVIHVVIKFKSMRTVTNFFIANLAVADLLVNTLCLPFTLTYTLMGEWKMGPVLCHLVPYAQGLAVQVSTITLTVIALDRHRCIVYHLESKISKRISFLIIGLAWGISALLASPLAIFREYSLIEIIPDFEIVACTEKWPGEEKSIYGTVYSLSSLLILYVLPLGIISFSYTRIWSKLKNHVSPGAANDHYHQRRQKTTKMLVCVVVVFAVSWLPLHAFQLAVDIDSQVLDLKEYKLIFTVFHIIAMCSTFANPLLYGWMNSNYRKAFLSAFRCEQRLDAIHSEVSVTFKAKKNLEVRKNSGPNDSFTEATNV
Procedure: as §1, §2

[3] = molecular target: T3, Y4R (Homo sapiens, UniProt P50391); experiment: IP accumulation assay, chimeric GαΔ6qi4myr, Y4R; settings: chimeric GαΔ6qi4myr co-transfected, transiently transfected HEK293 cells, mean of at least three independent experiments
T3 construct: expressed in transfected cells; host or cells: HEK293, transient
Procedure: as §1, §2

[4] = molecular target: T4, NPFF1R (Homo sapiens, UniProt Q9GZQ6); experiment: IP accumulation assay, chimeric GαΔ6qi4myr, NPFF1R; settings: chimeric GαΔ6qi4myr co-transfected, transiently transfected HEK293 cells, mean of at least three independent experiments
T4 construct: expressed in transfected cells; host or cells: HEK293, transient
Procedure: as §1, §2

[5] = molecular target: T5, NPFF2R (Homo sapiens, UniProt Q9Y5X5); experiment: IP accumulation assay, chimeric GαΔ6qi4myr, NPFF2R; settings: chimeric GαΔ6qi4myr co-transfected, transiently transfected HEK293 cells, mean of at least three independent experiments
T5 construct: expressed in transfected cells; host or cells: HEK293, transient
Procedure: as §1, §2

[6] = molecular target: T6, PrRPR (Homo sapiens, UniProt P49683); experiment: IP accumulation assay, endogenous Gαq coupling, PrRPR; settings: transiently transfected HEK293 cells, mean of at least three independent experiments
T6 construct: expressed in transfected cells; host or cells: HEK293, transient
T6 sequence (P49683 1-370): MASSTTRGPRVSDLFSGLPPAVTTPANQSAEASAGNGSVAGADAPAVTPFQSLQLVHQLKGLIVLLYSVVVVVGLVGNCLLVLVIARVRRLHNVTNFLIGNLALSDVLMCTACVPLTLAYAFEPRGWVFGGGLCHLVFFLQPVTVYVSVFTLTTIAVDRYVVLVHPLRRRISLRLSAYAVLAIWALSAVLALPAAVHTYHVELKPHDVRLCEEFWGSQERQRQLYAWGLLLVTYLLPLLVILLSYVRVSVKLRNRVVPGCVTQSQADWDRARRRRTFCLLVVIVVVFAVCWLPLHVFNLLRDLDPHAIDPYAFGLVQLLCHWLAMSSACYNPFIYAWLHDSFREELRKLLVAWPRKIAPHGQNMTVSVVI
Procedure: as §1, §2

[7] = molecular target: T7, QRFPR (Homo sapiens, UniProt Q96P65); experiment: IP accumulation assay, endogenous Gαq coupling, QRFPR; settings: transiently transfected HEK293 cells, mean of at least three independent experiments
T7 construct: expressed in transfected cells; host or cells: HEK293, transient
T7 sequence (Q96P65 1-431): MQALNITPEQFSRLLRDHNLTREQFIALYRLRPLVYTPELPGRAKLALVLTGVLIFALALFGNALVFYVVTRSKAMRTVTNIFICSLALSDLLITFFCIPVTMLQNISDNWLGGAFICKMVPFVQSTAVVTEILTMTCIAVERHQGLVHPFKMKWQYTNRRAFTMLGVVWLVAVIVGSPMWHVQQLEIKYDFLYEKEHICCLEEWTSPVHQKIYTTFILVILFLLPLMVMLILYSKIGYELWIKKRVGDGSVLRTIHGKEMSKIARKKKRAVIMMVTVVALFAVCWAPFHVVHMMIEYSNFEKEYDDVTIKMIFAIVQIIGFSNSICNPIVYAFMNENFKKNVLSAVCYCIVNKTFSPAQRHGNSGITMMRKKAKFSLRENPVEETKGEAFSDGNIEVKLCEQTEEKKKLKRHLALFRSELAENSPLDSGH
Procedure: as §1, §2

T4 sequence (Q9GZQ6 whole entry): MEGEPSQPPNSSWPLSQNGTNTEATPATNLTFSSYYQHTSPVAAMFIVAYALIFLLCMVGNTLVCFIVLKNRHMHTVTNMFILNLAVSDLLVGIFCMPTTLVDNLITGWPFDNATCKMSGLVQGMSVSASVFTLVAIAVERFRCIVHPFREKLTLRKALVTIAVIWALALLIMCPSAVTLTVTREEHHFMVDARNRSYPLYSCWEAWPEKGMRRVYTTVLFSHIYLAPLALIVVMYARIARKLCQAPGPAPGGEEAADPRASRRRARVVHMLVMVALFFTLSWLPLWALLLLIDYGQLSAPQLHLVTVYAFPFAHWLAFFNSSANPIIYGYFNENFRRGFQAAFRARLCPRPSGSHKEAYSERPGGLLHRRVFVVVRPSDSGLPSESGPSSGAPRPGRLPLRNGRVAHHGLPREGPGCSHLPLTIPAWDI
T3 sequence (P50391 whole entry): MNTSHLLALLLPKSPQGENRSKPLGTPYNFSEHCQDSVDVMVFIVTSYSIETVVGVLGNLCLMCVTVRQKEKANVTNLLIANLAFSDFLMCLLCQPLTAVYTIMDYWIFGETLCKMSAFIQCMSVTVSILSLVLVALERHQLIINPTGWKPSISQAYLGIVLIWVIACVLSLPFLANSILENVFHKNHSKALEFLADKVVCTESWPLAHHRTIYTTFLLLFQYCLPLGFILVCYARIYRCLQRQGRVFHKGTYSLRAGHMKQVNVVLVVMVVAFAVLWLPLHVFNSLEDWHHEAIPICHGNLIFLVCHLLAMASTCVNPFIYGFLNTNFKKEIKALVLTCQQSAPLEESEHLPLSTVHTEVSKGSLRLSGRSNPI
T5 sequence (Q9Y5X5 103-522): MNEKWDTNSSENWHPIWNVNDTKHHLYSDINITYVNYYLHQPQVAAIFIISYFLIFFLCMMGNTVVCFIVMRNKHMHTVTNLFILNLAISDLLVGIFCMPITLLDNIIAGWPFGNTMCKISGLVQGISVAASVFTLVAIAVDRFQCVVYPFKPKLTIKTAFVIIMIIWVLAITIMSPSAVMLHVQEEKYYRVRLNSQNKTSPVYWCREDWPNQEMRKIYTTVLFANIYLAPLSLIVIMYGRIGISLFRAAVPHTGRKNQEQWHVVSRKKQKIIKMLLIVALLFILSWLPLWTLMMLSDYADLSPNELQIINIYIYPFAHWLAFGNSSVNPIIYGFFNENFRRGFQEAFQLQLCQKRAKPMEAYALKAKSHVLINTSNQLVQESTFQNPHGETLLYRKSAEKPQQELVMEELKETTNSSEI

| IP accumulation, x-fold of basal (mean), Y1R ([1]; 0.1 µM peptide) | IP accumulation, x-fold of basal (mean), Y1R ([1]; 10 µM peptide) | IP accumulation, x-fold of basal (mean), Y2R ([2]; 0.1 µM peptide) | IP accumulation, x-fold of basal (mean), Y2R ([2]; 10 µM peptide) | IP accumulation, x-fold of basal (mean), Y4R ([3]; 0.1 µM peptide) | IP accumulation, x-fold of basal (mean), Y4R ([3]; 10 µM peptide) | IP accumulation, x-fold of basal (mean), NPFF1R ([4]; 0.1 µM peptide) | IP accumulation, x-fold of basal (mean), NPFF1R ([4]; 10 µM peptide) | IP accumulation, x-fold of basal (mean), NPFF2R ([5]; 0.1 µM peptide) | IP accumulation, x-fold of basal (mean), NPFF2R ([5]; 10 µM peptide) | IP accumulation, x-fold of basal (mean), PrRPR# ([6]; 0.1 µM peptide) | IP accumulation, x-fold of basal (mean), PrRPR# ([6]; 10 µM peptide) | IP accumulation, x-fold of basal (mean), QRFPR# ([7]; 0.1 µM peptide) | IP accumulation, x-fold of basal (mean), QRFPR# ([7]; 10 µM peptide) | Substance |
| --- | --- | --- | --- | --- | --- | --- | --- | --- | --- | --- | --- | --- | --- | --- |
| 1.02 x-fold of basal | 1.69 x-fold of basal | 0.88 x-fold of basal | 4.08 x-fold of basal | 1.38 x-fold of basal | 1.28 x-fold of basal | 1.48 x-fold of basal | 4.07 x-fold of basal | 0.88 x-fold of basal | 2.44 x-fold of basal | 1.20 x-fold of basal | 1.41 x-fold of basal | 0.95 x-fold of basal | 1.21 x-fold of basal | APKPKFIRF-NH2 [FLP-5-1, C. elegans FMRFamide-like peptide, C-terminally amidated, synthesized by SPPS] |
| 1.54 x-fold of basal | 3.82 x-fold of basal | 1.01 x-fold of basal | 0.70 x-fold of basal | 1.31 x-fold of basal | 1.29 x-fold of basal | 1.29 x-fold of basal | 3.42 x-fold of basal | 1.58 x-fold of basal | 3.28 x-fold of basal | 1.86 x-fold of basal | 0.96 x-fold of basal | 1.42 x-fold of basal | 1.52 x-fold of basal | NPENDTPFGTMRF-NH2 [FLP-3-4, C. elegans FMRFamide-like peptide, C-terminally amidated, synthesized by SPPS] |
| 1.32 x-fold of basal | 2.75 x-fold of basal | 1.30 x-fold of basal | 10.62 x-fold of basal | 1.03 x-fold of basal | 1.42 x-fold of basal | 1.04 x-fold of basal | 2.56 x-fold of basal | 1.85 x-fold of basal | 2.58 x-fold of basal | 1.06 x-fold of basal | 1.91 x-fold of basal | 22.77 x-fold of basal | 24.26 x-fold of basal | TSGPLGNLAEELNGYSRKKGGFSFRF-NH2 [QRFP26, human pyroglutamylated RFamide peptide, 26 residues, reference compound] |
